Results from PMC7596504, “Molecular mechanism of the MORC4 ATPase activation” (Nature Communications, 2020).
pKd: −log10 of the molar value. Where “and” joins values, the source holds several entries; their conditions need not be identical. Equal entries are not always repeated.

What was measured:
NCP252 = assay: FRET, Gal4 titration into Cy3-Cy5 labeled NCP252; format: binding; details: for S1/2: mean of n = 3
Experimental: Histone octamers unlabeled or labeled with Cy5 at H2AK119 were prepared as previously described. NCPs were reconstituted by combining octamer with 1.25× excess DNA and performing slow salt dialysis. Free DNA was then separated from fully reconstituted NCPs by sucrose gradient purification. NCPs for fluorescence polarization assays were reconstituted from unlabeled octamer and 207 bp DNA containing the 601 Widom sequence flanked with a 30 bp linker on either side and internally labeled with Fluorescein 27 bp in from the 5′ end. Cy3-Cy5 labeled NCPs for FRET assays were reconstituted with Cy5 labeled octamer plus either 147 bp 601 Widom DNA containing a LexA transcription factor binding site at bases 8–27[34], or 252 bp DNA containing the 601 Widom sequence with a 75 bp linker at the 3′ end, a 30 bp linker at the 5’ end, and a Gal4 transcription factor binding site at bases 8–26 in the 601 Widom sequence. The 147 bp LexA-binding DNA was labeled with Cy3 on the 5′ end, and the 252 bp Gal4-binding DNA was internally labeled with Cy3 34 bp in from the 5′ end.
LexA was expressed in E. coli, separated from genomic DNA and the proteome by polyethyleneimine precipitation, and salted out with ammonium sulfate. LexA was resuspended in buffer A (20 mM potassium phosphate pH 7, 0.1 mM EDTA, 10% glycerol, 1 mM DTT) + 200 mM NaCl and purified by a linear gradient to A + 800 mM NaCl over either a cellulose phosphate or HiTrap Heparin HP column. Final LexA purification was performed on a hydroxyapatite column and dialyzed into 10 mM PIPES pH 7.0, 0.1 mM EDTA, 10% glycerol, and 200 mM NaCl for storage at −80 °C. The His-tagged DNA-binding domain (aa 1–147) of Gal4 was expressed in E. coli and purified from lysate by a linear gradient of buffer B (25 mM Tris pH 7.5, 200 mM NaCl, 0.2% Tween 20, 20 µM zinc acetate, 1 mM dithiothreitol, and 1 mM PMSF) + 10 mM imidazole to B + 200 mM imidazole over a Nickel-NTA column. Gal4 (1–147) was then further purified by a linear gradient of buffer C (25 mM Tris pH 7.5, 20 µM zinc acetate, 1 mM dithiothreitol, and 1 mM PMSF) + 200 mM NaCl to C + 800 mM NaCl over a Tosoh cation exchange column. Purified Gal4 (1–147) was then dialyzed into 10 mM HEPES pH 7.5, 200 mM NaCl, 10% glycerol, 20 µM zinc acetate, 1 mM DTT, and 1 mM PMSF for storage at −80 °C.
Cy3-Cy5 NCP FRET efficiency measurements were carried out on a Horiba Scientific Fluoromax 4. Samples were excited at 510 and 610 nm and the photoluminescence spectra were collected from 530 to 750 nm and 630 to 750 nm for donor and acceptor excitations, respectively. Each wavelength was integrated for one second, and the excitation and emission slit width were set to 5 nm with 2 nm emission wavelength steps. FRET measurements were computed through the (ratio)A method. LexA titrations were carried out in 20 mM Tris pH 7.5, 75 mM NaCl, 10% glycerol, 0.00625% Tween 20 buffer with 5 nM 147 bp Cy3-Cy5 NCPs mixed in 20 µL reaction volumes and allowed to incubate for 5 mins at 4 °C before FRET of the sample was measured. To measure changes in accessibility of the NCP147 due to MORC4 ATPaseCW binding, LexA titrations were repeated in the presence of NCP binding saturating concentrations of MORC4 ATPaseCW. Gal4 (1–147) titrations were carried out in 10 mM Tris pH 8, 130 mM NaCl, 10% glycerol, 0.0075% Tween 20 buffer with 1 nM 252 bp Cy3-Cy5 nucleosomes mixed in 60 µL reaction volumes and allowed to incubate for 10 mins at room temperature before FRET of the sample was measured. […]

601 DNA = assay: EMSA with 601 DNA; format: binding; details: for binding to 601 DNA: 147 bp 601 DNA 5 pmol, pH 7.5, 150 mM NaCl, 0.5 h on ice
Experimental: EMSA experiments were performed essentially as described. In brief, increasing amounts of WT or mutant CW or ATPaseCW cassette of MORC4 were incubated with 147 bp 601 DNA (5 pmol) or 50 ng of O’RangeRuler 5 bp ladder (Thermo Scientific) in a DNA-binding buffer containing 20 mM Tris-HCl (pH 7.5), 150 mM NaCl, 2.5 mM MgCl2, and 2 mM DTT for 0.5 h on ice. The reaction mixtures were loaded on 5% native polyacrylamide gels, and electrophoresis was performed in 0.2× Tris-borate-EDTA (TBE) buffer at 100 V for 1.2 h on ice. Gels were stained with SYBR Gold (Invitrogen).

MORC4 CW domain = target: T1, MORC4 CW domain (Homo sapiens, UniProt Q8TE76); assay: Tryptophan fluorescence binding of histone H3 peptides to MORC4 CW; details: for pKd: tryptophan fluorescence, 25 °C, pH 6.8, 100 mM NaCl, excitation 295 nm, isolated CW
T1 construct: The CW domain (aa 417–475) of MORC4 was cloned into a pGEX 6p-1 vector; GST (N, cleaved yes); made in house; host or cells: E. coli Rosetta2 (DE3) pLysS or BL21 (DE3) RIL
T1 sequence (Q8TE76 417-475): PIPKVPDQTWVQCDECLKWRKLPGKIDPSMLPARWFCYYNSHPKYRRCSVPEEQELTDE
Experimental: Spectra were recorded at 25 °C on a Fluoromax-3 spectrofluorometer (HORIBA). The samples containing 0.5–1 µM wild-type or mutated ATPaseCW or CW in 20 mM Tris pH 6.8, 100 mM NaCl, 2 mM DTT buffer and progressively increasing concentrations of the histone peptides were excited at 295 nm. Emission spectra were recorded between 320 and 360 nm with a 0.5 nm step size and a 0.5 s integration time and averaged over three scans. The Kd values were determined using a nonlinear least-squares analysis and the equation:1 ΔI=ΔImaxL+P+Kd−L+P+Kd^2−4PL/2P where [L] is the concentration of the histone peptide, [P] is the concentration of the protein, ΔI is the observed change of signal intensity, and ΔImax is the difference in signal intensity of the free and bound states of the protein. The Kd values were averaged over three separate experiments with the error calculated as the standard deviation between the runs.

Gal4: DNA-binding domain (aa 1–147) of transcription factor Gal4
S1/2 (NCP252; FRET efficiency reduced by 50%, without MORC4, 1 nM NCP252, pH 8, 130 mM NaCl, room temperature, 10 min): 20 ± 4 nM and 20 nM
decrease in ability to bind NCP252 (NCP252; MORC4 ATPaseCW with ATP vs no MORC4): ~ 5 fold
decrease in ability to bind NCP252 (NCP252; MORC4 ATPaseCW without ATP vs no MORC4): 2 fold
S1/2 (NCP252; in presence of MORC4 ATPaseCW with 0.3 mM ATP): 100 ± 7 nM and 100 nM
S1/2 (NCP252; in presence of MORC4 ATPaseCW, without ATP): 40 ± 5 nM and 40 nM

CWKRR: triple mutant of the MORC4 CW domain, K460A/R462A/R463A (PIPKVPDQTWVQCDECLKWRKLPGKIDPSMLPARWFCYYNSHPAYAACSVPEEQELTDE; left off: GST, end not stated, cleaved)
binding to 601 DNA (601 DNA): did not observe the 601 DNA band shift even at the DNA to CWKRR molar ratio of 1 to 200

C[C@H](N)C(=O)N[C@@H](CCCNC(=N)N)C(=O)N[C@H](C(=O)N[C@@H](CCCC[N+](C)(C)C)C(=O)N[C@@H](CCC(N)=O)C(=O)N[C@H](C(=O)N[C@@H](C)C(=O)N[C@@H](CCCNC(=N)N)C(=O)N[C@@H](CCCCN)C(=O)N[C@@H](CO)C(=O)N[C@H](C(=O)NCC(=O)O)[C@@H](C)O)[C@@H](C)O)[C@@H](C)O [H3K4me3]
pKd (MORC4 CW domain; mean of n = 3): 6.95

Nc1ncnc2c1ncn2[C@@H]1O[C@H](COP(=O)(O)OP(=O)(O)NP(=O)(O)O)[C@@H](O)[C@H]1O [AMPPNP, adenylyl-imidodiphosphate, reference compound]
effect on binding of ATPaseCW to 601 DNA (601 DNA; added to ATPaseCW): increases binding to 601 DNA

CW: CW domain (aa 417–475) of MORC4 (PIPKVPDQTWVQCDECLKWRKLPGKIDPSMLPARWFCYYNSHPKYRRCSVPEEQELTDE; left off: GST, end not stated, cleaved)
higher binding affinity to H3K4me3 than other readers (MORC4 CW domain; MORC4 CW vs other H3K4me3 readers (compared with ref [21],[22])): 7–10 fold
binding to 601 DNA (601 DNA): indicating the direct interaction

C[C@H](N)C(=O)N[C@@H](CCCNC(=N)N)C(=O)N[C@H](C(=O)N[C@@H](CCCCN)C(=O)N[C@@H](CCC(N)=O)C(=O)N[C@H](C(=O)N[C@@H](C)C(=O)N[C@@H](CCCNC(=N)N)C(=O)N[C@@H](CCCCN)C(=O)N[C@@H](CO)C(=O)N[C@H](C(=O)NCC(=O)O)[C@@H](C)O)[C@@H](C)O)[C@@H](C)O [H3]
pKd (MORC4 CW domain; mean ± S.D. of n = 3): 5.58
